Measurements published in patent publication US9566265B2, “Carbazole compounds and therapeutic uses of the compounds” (Incuron, LLC, priority 2008, dated 2017).
pEC50: −log10 of the molar value. ≈ marks a conversion by molar mass, not a printed value. Like-named read-outs stand apart in the source and are kept apart here.

Tests used:
[1] = system: p53; assay: p53 activation assay, p53 responsive luciferase reporter cell line; type: cell-based, human; conditions: Homo sapiens, 16 h, HT1080-L or RCC45ConALuc reporter cells, 16 h; read-out: EC50 value (p53 activation)
[2] = in vivo; conditions: nude, mouse, po
Method: Drug doses and schedule. […] Treatment was initiated 7 days after tumor transplantation when the tumors reached 150-200 mg. The mice in the control group received the vehicle (0.2% hydroxypropylmethylcellulose) at 200 μl per 20 g mouse body weight (same as the treatment groups). Five mice were used for each experimental group with 10 tumors (1 tumor each in the left and right side flanks).
Maximum Tolerated Dose (MTD) and toxicity evaluation. […] The kinetics of drug-induced toxicities (body weight loss, diarrhea, and lethality) were determined daily for the first 10 days after treatment and every two days thereafter.

[3] = system: bacteria; assay: antibacterial cytotoxicity assay, comparison with ampicillin control; type: cell-based
Method: In particular, the effect of carbazole compounds of the present invention on gram positive (Bacillus subtilis) and gram negative (DH5-α) bacteria was determined by the following procedure, and is summarized in FIGS. 13A and 13B.
Each library chemical to be tested requires 2 rows of a 96-well plate, thus 4 chemicals (e.g. W, X, Y, Z) can be tested in one plate simultaneously. In addition to test chemicals, each plate should include positive and negative controls. As positive control, ampicillin is used at 100 μg/ml. As a negative control, DMSO is used in an amount equal to the highest volume of test compound used (˜0.25% DMSO for 50 μM).
Besides a positive control added in one concentration on each plate, the positive control of ampicillin is added to each assay run in a full concentration range (3 fold dilutions) to ensure proper and robust assay performance (estimated by comparison of dose response curves among runs).
The average OD600 nm of the test compound solutions are compared to that of the DMSO control by dividing the average OD600 nm of the test solution by that of the DMSO control and multiplying by 100 to produce the % DMSO control (i.e. % cytotoxicity). The % DMSO control is plotted vs compound concentration to generate sigmoid shaped curves. After three runs are complete, the raw data for all three runs is used for IC50 calculations.

[4] = system: A. fumigatus; assay: in vitro susceptibility CLSI M38A2, MIC; conditions: Aspergillus fumigatus
Excerpt: Eight Aspergillus spp. strains were used throughout the study. Six A. fumigatus, one A. flavus and one A. terreus also were used. The A. fumigatus group included two itraconazole-resistant strains (RIT13 and RIT5 strains) (1), one triazole cross-resistant strain (MUT10) (2, 3), one echinocandin cross-resistant strain (EMFRS678P) (4), and 2 wild type susceptible isolates (R21 and ATCC13073).

[5] = system: HB 101 E. coli; assay: antibacterial cytotoxicity assay, gram(−) bacteria (OD600); type: cell-based; conditions: 48 hours, over a range of potencies, FIG. 13A
[6] = system: C. krusei; assay: in vitro susceptibility CLSI M27A3, MIC; type: cell-based; conditions: Pichia kudriavzevii, ATCC6258; strain ATCC 6258, WT, Susceptible (naturally fluconazole resistant); read-out: MIC* (48 hs)
[7] = system: HCT-116, DLD1, Caki1 and MDA-MB-231 tumors; assay: various human tumour xenografts sc; type: in vivo, nude or SCID mice; conditions: tumor cells inoculated as a cell suspension
Method: In this study, the antitumor effect and toxicity of the three carbazoles against HCT-8 and HT29 colon cancer tumors were compared with treatment beginning when the tumor size reached 150-200 mg (about 7 days after tumor transplantation).

SMILES: CCN(CC)CCn1c2ccc3c(c2c2c4c(ccc21)C(=O)CC4)CCC3=O [Example 15]
- pEC50 [1]: 7.52
- MTD at 4 weeks [2]: 5 mg/kg/day
- effectiveness against bacteria compared with the ampicillin control [3]: more effective
- MIC ([4]; ATCC13073, read-out: MIC* (24 hs), strain ATCC13073, WT, Susceptible): 2.56 µM (≈ 0.959 µg/mL)
- MIC ([4]; ATCC13073, read-out: MIC* (48 hs), strain ATCC13073, WT, Susceptible): 5.13 µM (≈ 1.92 µg/mL)
- MIC ([4]; read-out: 24 hs MIC Geom. Means, A. fumigatus strains): 1.59 µM (≈ 0.595 µg/mL)
- MIC ([4]; read-out: MIC* (24 hs), strain EMFRS678P, Fks1pS678P, Echinocandin cross-resistant): 1.28 µM (≈ 0.479 µg/mL)
- MIC ([4]; read-out: MIC* (24 hs), strain MUT10, Cyp51Ap G138C, Triazole cross resistant): 0.66 µM (≈ 0.247 µg/mL)
- MIC ([4]; read-out: MIC* (24 hs), strain R21, WT, Susceptible): 1.28 µM (≈ 0.479 µg/mL)
- MIC ([4]; read-out: MIC* (24 hs), strain RIT5, Itraconazole resistant): 0.66 µM (≈ 0.247 µg/mL)
- MIC ([4]; read-out: MIC* (24 hs), strain RIT13, Itraconazole resistant): 1.61 µM (≈ 0.603 µg/mL)
- MIC ([4]; read-out: MIC* (48 hs), strain EMFRS678P, Fks1pS678P, Echinocandin cross-resistant): 2.56 µM (≈ 0.959 µg/mL)
- MIC ([4]; read-out: MIC* (48 hs), strain MUT10, Cyp51Ap G138C, Triazole cross resistant): 1.28 µM (≈ 0.479 µg/mL)
- MIC ([4]; read-out: MIC* (48 hs), strain R21, WT, Susceptible): 2.56 µM (≈ 0.959 µg/mL)
- MIC ([4]; read-out: MIC* (48 hs), strain RIT5, Itraconazole resistant): 1.28 µM (≈ 0.479 µg/mL)
- MIC ([4]; read-out: MIC* (48 hs), strain RIT13, Itraconazole resistant): 1.28 µM (≈ 0.479 µg/mL)
- antibacterial effect [5]: antibacterial effect
- MIC [6]: 0.66 µM (≈ 0.247 µg/mL)
- antitumor efficacy [7]: antitumor efficacy
